Source: US10597388B2, “Pyridazinone herbicides” (FMC CORPORATION, priority 2014, dated 2020)

Tests used:
Test in all cases: Test D controlled growth environment herbicide test, pre- and postemergence
Format in all cases: in vivo
[1] = tested on: oat, wild (wild oat, Avena fatua)
Text: (§1) Seeds of plant species selected from bluegrass (annual bluegrass, Poa annua), blackgrass (Alopecurus myosuroides), Canada thistle (Cirsium arvense), canarygrass (Phalaris minor), chickweed (common chickweed, Stellaria media), geranium, cutleaf (cutleaf geranium, Geranium dissectum), galium (catchweed bedstraw, Galium aparine), bromegrass, downy (downy bromegrass, Bromus tectorum), field poppy (Papaver rhoeas), field violet (Viola arvensis), foxtail, green (green foxtail, Setaria viridis), deadnettle (henbit deadnettle, Lamium amplexicaule), ryegrass, Italian (Italian ryegrass, Lolium multiflorum), kochia (Kochia scoparia), lambsquarters (Chenopodium album), oilseed rape (Brassica napus), pigweed (Amaranthus retroflexus), chamomile (scentless chamomile, Matricaria inodora), Russian thistle (Salsola kali), speedwell (bird's-eye speedwell, Veronica persica), barley, spring (spring barley, Hordeum vulgare), wheat, spring (spring wheat, Triticum aestivum), buckwheat, wild (wild buckwheat, Polygonum convolvulus), mustard, wild (wild mustard, Sinapis arvensis), oat, wild (wild oat, Avena fatua), radish, wild (wild radish, Raphanus raphanistrum), windgrass (Apera spica-venti), barley, winter (winter barley, Hordeum vulgare), and wheat, winter (winter wheat, Triticum aestivum) were planted into a silt loam soil and treated preemergence with test chemicals formulated in a non-phytotoxic solvent mixture which included a surfactant.
(§2) At the same time, these species were planted in pots containing Redi-Earth® planting medium (Scotts Company, 14111 Scottslawn Road, Marysville, Ohio 43041) comprising spaghnum peat moss, vermiculite, wetting agent and starter nutrients and treated with postemergence applications of the test chemicals formulated in the same manner. Plants ranged in height from 2 to 18 cm (1- to 4-leaf stage). Treated plants and controls were maintained in a controlled growth environment for 14 to 21 d after which time all species were compared to controls and visually evaluated. Plant response ratings, summarized in Table D, are based on a scale of 0 to 100 where 0 is no effect and 100 is complete control. A dash (-) response means no test result.

[2] = tested on: lambsquarters (Chenopodium album)
Text: as §1, §2

[3] = tested on: barley, winter (winter barley, Hordeum vulgare)
Text: as §1, §2

[4] = tested on: bromegrass, downy (downy bromegrass, Bromus tectorum)
Text: as §1, §2

[5] = tested on: mustard, wild (wild mustard, Sinapis arvensis)
Text: as §1, §2

[6] = tested on: wheat, winter (winter wheat, Triticum aestivum)
Text: as §1, §2

[7] = tested on: field poppy (Papaver rhoeas)
Text: as §1, §2

[8] = tested on: chickweed (common chickweed, Stellaria media)
Text: as §1, §2

[9] = tested on: chamomile (scentless chamomile, Matricaria inodora); conditions: for Chamomile plant response rating: 31 g ai/ha
Text: as §1, §2

[10] = tested on: foxtail, green (green foxtail, Setaria viridis)
Text: as §1, §2

[11] = tested on: blackgrass (Alopecurus myosuroides)
Text: as §1, §2

[12] = tested on: windgrass (Apera spica-venti)
Text: as §1, §2

[13] = tested on: pigweed (Amaranthus retroflexus)
Text: as §1, §2

[14] = tested on: wheat, spring (spring wheat, Triticum aestivum)
Text: as §1, §2

[15] = Postemergence, 31 g ai/ha, scale 0 to 100 (0 no effect, 100 complete control)
[16] = Postemergence, 125 g ai/ha, visual rating on scale 0 (no effect) to 100 (complete control), 14 to 21 d
[17] = Postemergence, 250 g ai/ha, scale 0 to 100 (0 no effect, 100 complete control)
[18] = Preemergence, 62 g ai/ha, scale 0 to 100 (0 no effect, 100 complete control)
[19] = Preemergence, 125 g ai/ha, scale 0 to 100 (0 no effect, 100 complete control)
[20] = Preemergence, 250 g ai/ha, scale 0 to 100, 0 no effect, 100 complete control
[21] = postemergence, 62 g ai/ha, scale 0 to 100, 0 no effect, 100 complete control
[22] = Postemergence, scale 0 to 100 (0 no effect, 100 complete control)

Cn1nc(Br)c(O)c(-c2cccc3ccccc23)c1=O [Compound 20]
Oat, Wild plant response rating [1, 15]: 20 | Plant response rating, Oat, Wild [1, 16]: 60 | Plant response rating, Oat, Wild [1, 17]: 75 | Plant response rating (scale of 0 to 100), Oat, Wild ([1]; Preemergence, 31 g ai/ha): 35 | Plant response rating, Oat, Wild [1, 18]: 65 | Plant response rating, Oat, Wild [1, 19]: 85 | Plant response rating, Oat, Wild [1, 20]: 95 | Plant response rating, Oat, Wild [1, 21]: 25 | Lambsquarters plant response rating [2, 15]: 85 | Plant response rating, Lambsquarters [2, 16]: 90 | Plant response rating, Lambsquarters [2, 17]: 95 | Plant response rating (scale of 0 to 100), Lambsquarters ([2]; Preemergence, 31 g ai/ha): 75 | Plant response rating, Lambsquarters [2, 18]: 90 | Plant response rating, Lambsquarters [2, 19]: 100 | Plant response rating, Lambsquarters [2, 20]: 100 | Plant response rating, Lambsquarters [2, 21]: 85 | Plant response rating, Barley, Winter [3, 15]: 0 | Plant response rating, Barley, Winter [3, 16]: 0 | Plant response rating, Barley, Winter [3, 17]: 0 | Plant response rating (scale of 0 to 100), Barley, Winter ([3]; Preemergence, 31 g ai/ha): 0 | Plant response rating, Barley, Winter [3, 18]: 0 | Plant response rating, Barley, Winter [3, 19]: 0 | Barley, Winter plant response rating [3, 20]: 0 | Plant response rating, Barley, Winter [3, 21]: 0 | Bromegrass, Downy plant response rating [4, 15]: 0 | Plant response rating, Bromegrass, Downy [4, 16]: 10 | Plant response rating, Bromegrass, Downy [4, 17]: 15 | Plant response rating (scale of 0 to 100), Bromegrass, Downy ([4]; Preemergence, 31 g ai/ha): 15 | Plant response rating, Bromegrass, Downy [4, 18]: 35 | Plant response rating, Bromegrass, Downy [4, 19]: 40 | Plant response rating, Bromegrass, Downy [4, 20]: 45 | Plant response rating, Bromegrass, Downy [4, 21]: 10 | Mustard, Wild plant response rating [5, 15]: 75 | Plant response rating, Mustard, Wild [5, 16]: 100 | Plant response rating, Mustard, Wild [5, 17]: 100 | Plant response rating (scale of 0 to 100), Mustard, Wild ([5]; Preemergence, 31 g ai/ha): 25 | Plant response rating, Mustard, Wild [5, 18]: 35 | Plant response rating, Mustard, Wild [5, 19]: 100 | Plant response rating, Mustard, Wild [5, 20]: 100 | Plant response rating, Mustard, Wild [5, 21]: 100 | Wheat, Winter plant response rating [6, 15]: 0 | Plant response rating, Wheat, Winter [6, 16]: 15 | Plant response rating, Wheat, Winter [6, 17]: 25 | Plant response rating (scale of 0 to 100), Wheat, Winter ([6]; Preemergence, 31 g ai/ha): 0 | Plant response rating, Wheat, Winter [6, 18]: 0 | Plant response rating, Wheat, Winter [6, 19]: 15 | Plant response rating, Wheat, Winter [6, 20]: 25 | Plant response rating, Wheat, Winter [6, 21]: 10 | Field Poppy plant response rating [7, 15]: 30 | Plant response rating, Field Poppy [7, 16]: 100 | Plant response rating, Field Poppy [7, 17]: 100 | Plant response rating (scale of 0 to 100), Field Poppy ([7]; Preemergence, 31 g ai/ha): 70 | Plant response rating, Field Poppy [7, 18]: 70 | Plant response rating, Field Poppy [7, 19]: 95 | Plant response rating, Field Poppy [7, 20]: 100 | Plant response rating, Field Poppy [7, 21]: 60 | Chickweed plant response rating [8, 15]: 90 | Plant response rating, Chickweed [8, 16]: 100 | Plant response rating, Chickweed [8, 17]: 100 | Plant response rating (scale of 0 to 100), Chickweed ([8]; Preemergence, 31 g ai/ha): 85 | Plant response rating, Chickweed [8, 18]: 95 | Plant response rating, Chickweed [8, 19]: 95 | Plant response rating, Chickweed [8, 20]: 95 | Plant response rating, Chickweed [8, 21]: 100 | Chamomile plant response rating [9, 22]: 70 | Plant response rating, Chamomile [9, 16]: 100 | Plant response rating, Chamomile [9, 17]: 100 | Plant response rating, Chamomile [9, 21]: 95 | Foxtail, Green plant response rating [10, 15]: 15 | Plant response rating, Foxtail, Green [10, 16]: 40 | Plant response rating, Foxtail, Green [10, 17]: 70 | Plant response rating (scale of 0 to 100), Foxtail, Green ([10]; Preemergence, 31 g ai/ha): 25 | Plant response rating, Foxtail, Green [10, 18]: 60 | Plant response rating, Foxtail, Green [10, 19]: 75 | Plant response rating, Foxtail, Green [10, 20]: 85 | Plant response rating, Foxtail, Green [10, 21]: 35 | Blackgrass plant response rating [11, 15]: 15 | Plant response rating, Blackgrass [11, 16]: 50 | Plant response rating, Blackgrass [11, 17]: 60 | Plant response rating (scale of 0 to 100), Blackgrass ([11]; Preemergence, 31 g ai/ha): 20 | Plant response rating, Blackgrass [11, 18]: 40 | Plant response rating, Blackgrass [11, 19]: 60 | Blackgrass plant response rating [11, 20]: 75 | Plant response rating, Blackgrass [11, 21]: 40 | Windgrass plant response rating [12, 15]: 25 | Plant response rating, Windgrass [12, 16]: 30 | Plant response rating, Windgrass [12, 17]: 40 | Plant response rating (scale of 0 to 100), Windgrass ([12]; Preemergence, 31 g ai/ha): 35 | Plant response rating, Windgrass [12, 18]: 40 | Plant response rating, Windgrass [12, 19]: 50 | Plant response rating, Windgrass [12, 20]: 60 | Plant response rating, Windgrass [12, 21]: 30 | Pigweed plant response rating [13, 15]: 80 | Plant response rating, Pigweed [13, 16]: 100 | Plant response rating, Pigweed [13, 17]: 100 | Plant response rating (scale of 0 to 100), Pigweed ([13]; Preemergence, 31 g ai/ha): 30 | Plant response rating, Pigweed [13, 18]: 40 | Plant response rating, Pigweed [13, 19]: 100 | Plant response rating, Pigweed [13, 20]: 100 | Plant response rating, Pigweed [13, 21]: 100 | Wheat, Spring plant response rating [14, 15]: 0 | Plant response rating, Wheat, Spring [14, 16]: 15 | Plant response rating, Wheat, Spring [14, 17]: 20 | Plant response rating (scale of 0 to 100), Wheat, Spring ([14]; Preemergence, 31 g ai/ha): 0 | Plant response rating, Wheat, Spring [14, 18]: 15 | Plant response rating, Wheat, Spring [14, 19]: 25 | Plant response rating, Wheat, Spring [14, 20]: 45 | Plant response rating, Wheat, Spring [14, 21]: 15

Cc1cc(C)c2ccccc2c1-c1c(O)c(C)nn(C)c1=O [Compound 21]
Oat, Wild plant response rating [1, 15]: 80 | Plant response rating, Oat, Wild [1, 16]: 85 | Plant response rating, Oat, Wild [1, 17]: 100 | Plant response rating, Oat, Wild [1, 21]: 85 | Lambsquarters plant response rating [2, 15]: 80 | Plant response rating, Lambsquarters [2, 16]: 90 | Plant response rating, Lambsquarters [2, 17]: 95 | Plant response rating, Lambsquarters [2, 21]: 85 | Plant response rating, Barley, Winter [3, 15]: 0 | Plant response rating, Barley, Winter [3, 16]: 30 | Plant response rating, Barley, Winter [3, 17]: 40 | Plant response rating, Barley, Winter [3, 21]: 10 | Bromegrass, Downy plant response rating [4, 15]: 45 | Plant response rating, Bromegrass, Downy [4, 16]: 75 | Plant response rating, Bromegrass, Downy [4, 17]: 80 | Plant response rating, Bromegrass, Downy [4, 21]: 60 | Mustard, Wild plant response rating [5, 15]: 100 | Plant response rating, Mustard, Wild [5, 16]: 100 | Plant response rating, Mustard, Wild [5, 17]: 100 | Plant response rating, Mustard, Wild [5, 21]: 100 | Wheat, Winter plant response rating [6, 15]: 20 | Plant response rating, Wheat, Winter [6, 16]: 35 | Plant response rating, Wheat, Winter [6, 17]: 40 | Plant response rating, Wheat, Winter [6, 21]: 25 | Field Poppy plant response rating [7, 15]: 85 | Plant response rating, Field Poppy [7, 16]: 100 | Plant response rating, Field Poppy [7, 17]: 100 | Plant response rating, Field Poppy [7, 21]: 100 | Chickweed plant response rating [8, 15]: 90 | Plant response rating, Chickweed [8, 16]: 100 | Plant response rating, Chickweed [8, 17]: 100 | Plant response rating, Chickweed [8, 21]: 100 | Chamomile plant response rating [9, 22]: 90 | Plant response rating, Chamomile [9, 16]: 100 | Plant response rating, Chamomile [9, 17]: 100 | Plant response rating, Chamomile [9, 21]: 95 | Foxtail, Green plant response rating [10, 15]: 70 | Plant response rating, Foxtail, Green [10, 16]: 85 | Plant response rating, Foxtail, Green [10, 17]: 95 | Plant response rating, Foxtail, Green [10, 21]: 80 | Blackgrass plant response rating [11, 15]: 80 | Plant response rating, Blackgrass [11, 16]: 85 | Plant response rating, Blackgrass [11, 17]: 90 | Plant response rating, Blackgrass [11, 21]: 85 | Windgrass plant response rating [12, 15]: 70 | Plant response rating, Windgrass [12, 16]: 85 | Plant response rating, Windgrass [12, 17]: 85 | Plant response rating, Windgrass [12, 21]: 80 | Pigweed plant response rating [13, 15]: 80 | Plant response rating, Pigweed [13, 16]: 90 | Plant response rating, Pigweed [13, 17]: 98 | Plant response rating, Pigweed [13, 21]: 85 | Wheat, Spring plant response rating [14, 15]: 20 | Plant response rating, Wheat, Spring [14, 16]: 40 | Plant response rating, Wheat, Spring [14, 17]: 50 | Plant response rating, Wheat, Spring [14, 21]: 30
